In ChEMBL document CHEMBL3124783, “Study of the structural and dynamic effects in the FimH adhesin upon α-d-heptyl mannose binding” (J Med Chem, 2014):
Active and inactive are the calls of the source. The rule behind the calls is not given here.

Columns and labels:
Escherichia coli J96 = assay: Selectivity ratio of Kd for Escherichia coli J96 FimH lectin domain Y48A mutant to Kd for Escherichia coli J96 wild type FimH lectin domain
[1] = target: Type 1 fimbrin D-mannose specific adhesin (Escherichia coli K-12) (UniProt P08191); assay: Binding affinity to Escherichia coli J96 FimH lectin domain expressed in Escherichia coli C43 (DE3) by SAXS analysis
Sequence of Type 1 fimbrin D-mannose specific adhesin (Escherichia coli K-12) (P08191 whole entry, the tested form may be a part): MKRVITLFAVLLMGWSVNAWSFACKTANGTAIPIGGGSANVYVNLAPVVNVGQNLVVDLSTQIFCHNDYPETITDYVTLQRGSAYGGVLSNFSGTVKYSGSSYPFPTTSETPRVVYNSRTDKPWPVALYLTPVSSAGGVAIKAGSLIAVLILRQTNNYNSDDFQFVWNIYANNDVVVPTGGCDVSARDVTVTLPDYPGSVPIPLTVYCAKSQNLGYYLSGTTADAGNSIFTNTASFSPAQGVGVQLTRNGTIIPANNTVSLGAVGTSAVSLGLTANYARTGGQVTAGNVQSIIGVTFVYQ

[2] = Binding affinity to Escherichia coli J96 FimH lectin domain Y48A mutant expressed in Escherichia coli C43 (DE3) by direct ITC analysis
[3] = target: Type 1 fimbrin D-mannose specific adhesin (Escherichia coli K-12, UniProt P08191); assay: Binding affinity to Escherichia coli J96 wild type FimH lectin domain expressed in Escherichia coli C43 (DE3) by direct ITC analysis
Sequence of Type 1 fimbrin D-mannose specific adhesin (P08191 whole entry, the tested form may be a part): as above

[4] = target: Type 1 fimbrin D-mannose specific adhesin (Escherichia coli K-12) (UniProt P08191); assay: Binding affinity to Escherichia coli J96 FimH lectin domain expressed in Escherichia coli C43 (DE3) by NMR analysis
[5] = Binding affinity to Escherichia coli FimH lectin domain

Selectivity ratio (Escherichia coli J96): 5 | Activity [1]: Active | Kd [3]: 17.1 nM | Activity [4]: Active
Compound: CCCCCCCO[C@H]1O[C@H](CO)[C@@H](O)[C@H](O)[C@@H]1O
Kd [2]: 94.3 nM | Kd [5]: 7 nM
